Series [1] concerns Pseudococcus longispinus males. Put plainly: Field trial of attraction response of males, persimmon orchard in Alginet. It counts as in vivo. The settings on record: for Captures (mean) of P. longispinus males: rubber septum carrier loaded with 250 μg, white sticky cardboard trap, six blocks, number of males captured per trap and per day compared. How it is done:
(§1) The response of Pseudococcus longispinus males to 2-(1,5-dimethyl-4-methylenecyclopent-2-en-1-yl)ethyl acetate was evaluated by means of a field trial carried out in a persimmon orchard, located in the town of Alginet (Valencia, Spain). Six blocks of 3 devices were installed: (A) a device with a carrier, without attractant and with a trap consisting of a white sticky cardboard (95×150 mm), (B) a device with a carrier loaded with 250 μg of the described substance by Miller et al. in 2009 (e.g. 2-(1,5,5-trimethylcyclopent-2-en-1-yl)ethyl acetate) and a trap consisting of a white sticky cardboard, and (C) a carrier device loaded with 250 μg of 2-(1,5-dimethyl-4-methylenecyclopent-2-en-1-yl)ethyl acetate and a trap consisting of a white sticky cardboard. Within each block, the devices were placed at a distance of 10 m from each other, while the distance between blocks was at least 30 m. The carriers loaded with the substances were of the rubber septa type and were inserted in the center of the trap.
(§2) The captures obtained in each of the traps were reviewed biweekly and the captured individuals were taken to the laboratory to be identified and counted.
(§3) The number of males captured per trap and per day was compared using a variance analysis (ANOVA; LSD test for comparison of means, P<0.05), prior transformation (ln(x+1)) of the data in order to homogenize the variance.

The nature of series [2]: Analysis of attractant content of the carrier after field exposure (emission). It counts as physicochemical. How it is done:
as §1, with “Alginet” left out, “trap. […] Therefore, the average emission during those 21 days is 5.52±1.20 μg/day.” for “trap.”

Series [3] concerns Pseudococcus longispinus males. The series can be described thus: Second field trial of attractant activity, persimmon orchard in L'Alcúdia. It counts as in vivo. The settings on record: for Attractant activity of baited devices (in words): 250 μg, versus traps without attractant (A); for Captures (mean) of P. longispinus males: rubber septum carrier loaded with 250 μg, white sticky cardboard trap, four blocks. How it is done: as §1, §2, §3
A second field trial was conducted to evaluate the attractant activity of 2-(1,5-dimethyl-4-methylenecyclopent-2-en-1-yl)ethyl propionate, in a persimmon orchard located in L'Alcúdia (Valencia, Spain). Four blocks of 3 devices were installed: (A) a device with a carrier, without attractant and with a trap consisting of a white sticky cardboard (95×150 mm), (B) a device with a carrier loaded with 250 μg of 2-(1,5-dimethyl-4-methylenecyclopent-2-en-1-yl)ethyl propionate and a trap consisting of a white sticky cardboard, and (C) a carrier device loaded with 250 μg of 2-(1,5-dimethyl-4-methylenecyclopent-2-en-1-yl)ethyl acetate and a trap consisting of a white sticky cardboard. The rest of trial conditions were the same as those described above.

The subject of series [4] is populations of P. longispinus. Put plainly: Preliminary trap tests by UPV in persimmon cultivation, Valencian Community. It counts as in vivo, Pseudococcus longispinus. The source says: The sex pheromone of the species P. longispinus was described by Millar et al. (Sex pheromone of the longtailed mealybug: a new class of monoterpene structure. Organic Letters 2009, 11, 2683-2685) as the compound 2-(1,5,5-trimethylcyclopent-2-en-1-yl)ethyl acetate, in populations of the species collected in the United States. However, this substance turned out to be ineffective in attracting populations of P. longispinus in persimmon cultivation in the Valencian Community. […] This is not uncommon, and this phenomenon has been described for the mealybug P. ficus, whose Californian populations produce a single-component pheromone, while Israeli populations produce an additional compound (Zada, A., Dunkelblum, E., Assael, F., Harel, M., Cojocaru, M. & Mendel, Z. (2003) Sex pheromone of the vine mealybug, Planococcus ficus in Israel: occurrence of a second component in a mass-reared population. Journal of Chemical Ecology, 29, 977-988).

On to `C=C1C=CC(C)(CCOC(C)=O)C1C` (racemic) [Acetate of formula I (C), 2-(1,5-dimethyl-4-methylenecyclopent-2-en-1-yl)ethyl acetate], for which the “Attractive power of baited devices (in words)” value in series [1] (250 μg, versus traps without attractant (A) and pheromone described by Millar et al. (B)) is “significantly higher attractive power”. Also, the “Captures (mean) of P. longispinus males” value in series [1] is 19.35 b. Further, in series [2] (after 21 days, carrier initially loaded with 250 μg), the “Final content of the substance in the carrier” value came out at 134 µg. For the same compound, the Average emission in series [2] (during 21 days, rubber septum loaded with 250 μg) amounted to 5.52 ± 1.20 µg/day. In addition, in series [3], the “Attractant activity of baited devices (in words)” value was “highest level of captures” and the “Captures (mean) of P. longispinus males” value was determined as 406.58 c.
In the case of `CC(=O)OCCC1(C)C=CCC1(C)C` (centres unmarked) [Millar et al. (B), 2-(1,5,5-trimethylcyclopent-2-en-1-yl)ethyl acetate], the “Attraction of populations of P. longispinus (in words)” value in series [4] (persimmon cultivation in the Valencian Community) is “ineffective”. Also, the “Males captured by traps baited with virgin females relative to traps baited with the synthetic pheromone” value in series [4] (preliminary tests, virgin females of P. longispinus as comparator) turned out to be 100 times. Further, in series [1], the “Captures (mean) of P. longispinus males” value worked out at 0.21 a.
Take `C=C1C=CC(C)(CCOC(=O)CC)C1C` (centres unmarked) [Propionate of formula I (B), 2-(1,5-dimethyl-4-methylenecyclopent-2-en-1-yl)ethyl propionate]: in series [3], the “Attractant activity of baited devices (in words)” value is listed as “significant attractant activity” and the “Captures (mean) of P. longispinus males” value amounted to 89.07 b.

For the origin of these results see US20260231936A1, “COMPOUNDS AND COMPOSITIONS THAT ATTRACT THE SPECIES PSEUDOCOCCUS LONGISPINUS, ATTRACTANT DEVICE AND METHODS FOR CONTROLLING AND/OR MONITORING THE PEST” (Universitat Politècnica de València, priority 2023, published 2026).
